Laboratory results as given in EP0292365A2, “4-Amino-5,8-quinazolindione derivatives, process for their preparation and pharmaceutical compositions containing them” (CENTRE NATIONAL DE LA RECHERCHE SCIENTIFIQUE, priority 1987, dated 1988).

Legend:
[1] = system: cellules leucémiques L 1210; test: In vitro cytotoxicity: growth inhibition of L 1210 leukemia cells (Coulter count); assay type: cell-based, souris; details: Mus musculus, L1210, 48 h, read-out: CI50 après 48 h de culture
Experimental: La détermination de la cytotoxicité in vitro sur les cellules leucémiques L 1210 est la méthode utilisée pour sélectionner les molécules potentiellement antitumorales. Le protocole mis en oeuvre est le suivant :
les cellules leucématiques L 1210 adaptées à la culture en suspension stationnaire sont entretenues dans du milieu RPMI 1640 (commercialisé par Seromed) additionné de 20 % de sérum de cheval décomplémenté, L-glutamine (2 mM), pénicilline (200 U/ml), streptomycine (50µg/ml) et cultivées à 37° C dans une atmosphère à 5 % de C02. Les cultures testées par la méthode de BARILE (BARILE M.F. Mycoplasmal contamination of cell culture, in Contamination in Tissue Culture, J. Fogh (ed.) Acad. Press, 132-156, 1973) sont exemptes de contaminations bactériennes et mycoplasmiques.
Pour les expérimentations, les cellules sont ensemencées à la concentration de 0,8.10^5 cellules/ml et cultivées par 2 ml dans des flacons de 15 ml. Les substances à étudier sont dissoutes dans du DMSO (1 % final) dont on a préalablement vérifié l'innocuité. Des quantités croissantes de produit à tester sont ajoutées au temps 0 et des numérations sont faites au compteur COULTER après 24 et 48 heures de culture. Des séries de contrôle sont effectuées avec des quantités de DMSO équivalentes à celles des séries traitées.
Le temps de doublement des cellules témoins est approximativement de 12 heures.
La cytotoxicité est déterminée d'après l'inhibition de croissance des cellules L 1210, calculée par rapport aux témoins correspondants selon la formule : [formula] • T = concentration de cellules non traitées, • t = concentration de cellules traitées.
La concentration de produit qui diminue la croissance cellulaire de 50 % (Clso) est calculée d'après la méthode des régressions linéaires en coordonnées log-probit.
Lorsque la Cl50 est voisine de la micromolarité (égale ou inférieure à 1 µM), il existe une présomption d'activité antitumorale et les essais in vivo indiqués ci-après sont effectués.
A titre d'exemple, la CI50 mesurée 48 heures après traitement des cellules par les composés de l'invention testés est la suivante : […]

lignée HBL = test: Effect on cell cycle phases (cell kinetics parameters), HBL line; assay type: cell-based, humaine; details: for G2±M / GO-G1 / S / G2+M / G1-GO: HBL
Experimental: Les cellules tumorales en croissance exponentielle sont ensemencées (10.000 cellules/ml) dans des boîtes à Petri contenant au fond de la boîte un couvre-objet (18 x 18 mm) et 3 ml de MEM (MEM = milieu essentiel minimum) + 5 % FCS (FCS = serum de veau fetal) (v/v). […] Trois couvre-objets sont fixés pour chaque condition expérimentale : éthanol 95° (75 v), formol neutre à 40 % (20 v), acide acétique (5 v), pendant 10 minutes. Les cellules témoins cultivées dans le milieu expérimental sans le produit à tester sont fixées au même moment. A la fin de la fixation, les couvre-objets sont retournés et montés sur des lames histologiques à l'aide de produit commercialisé sous la marque DPX par la Société British Drug House et conservés à l'abri de la lumière et à 4° en attendant d'être colorés.
Les lames avec les couvre-objets sont colorées par une réaction de Feulgen modifiée. Toutes les lames d'une condition expérimentale sont conditionnées par le réactif de Feulgen en même temps, pendant une heure, après hydrolyse dans un milieu HCI 6N pendant une heure à 20° C. Les préparations cellulaires sont ensuite conservées à l'abri de la lumière et à 4°C en attendant l'analyse.
Grâce à un système d'analyse microscopique à balayage automatique, on détermine l'effet de la drogue sur la croissance cellulaire, au cours du temps, sur deux lignées cellulaires tumorales d'origine humaine : la lignée MCF-7 d'origine mammaire et la lignée HBL (mélanome malin).
On a représenté sur le tableau D BIS les résultats relatifs aux effets du composé 63 au cours du temps sur les différentes phases du cycle cellulaire (lignée HBL) où il est possible d'observer le nombre de cellules survivant à chaque phase du cycle cellulaire.
Dans les tableaux, GO-G1, S et G2 + M correspondent à des différentes phases de multiplication des cellules, telles qu'elles sont définies dans "Cell proliferation kinetics of MCF-7 human mammary carcinome cells in culture and effects of tamoxifen on exponentially growing and plateau - phase cells" R.L. Sutherland, R.E. Hall and I.W. Taylor, Cancer Research 43, pp. 3998 à 4006, 1983.

[2] = Determination of toxicity (DLo), single intraperitoneal dose; assay type: in vivo; details: voie intrapéritonéale, dose unique, souris Swiss, suivies pendant un mois
Source text: Ils sont tous administrés, par voie intrapéritonéale (ip), à des souris Swiss de 22 ± 2 g, à doses uniques exprimées en mg/kg de poids corporel. Les animaux sont suivis pendant un mois. La mortalité et les signes de toxicité sont relevés. On détermine ainsi la DLoqui sera la dose maximale utilisée pour la détermination de l'activité antitumorale.

## CN(C)CCCNc1ncnc2c1C(=O)C(N1CC1)=C(N1CC1)C2=O [composé 63]
[1]
  IC50: 2.7 nM
lignée HBL; F (10µg/ml), 1 jour
  G2±M: 14.0 ± 0.1 ns
  GO-G1: 62.7 ± 2.0 ns
  S: 23.3 ± 2.0 ns
lignée HBL; F (10µg/ml), 2 jours
  G2+M: 13.3 ± 2.2 ns
  GO-G1: 58.7 ± 0.9
  S: 28.0 ± 2.1
lignée HBL; F (10µg/ml), 3 jours
  G2+M: 12.3 ± 0.7 ns
  GO-G1: 59.7 ± 0.9
  S: 28.0 ± 1.0
lignée HBL; F (10µg/ml), 4 jours
  G1-GO: 59.0 ± 1.5 ns
  G2+M: 12.3 ± 1.9 ns
  S: 28.7 ± 0.7 ns
lignée HBL; M (1µg/ml), 1 jour
  G2±M: 12.7 ± 1.5 ns
  GO-G1: 62.3 ± 1.9 ns
  S: 25.0 ± 3.6 ns
lignée HBL; M (1µg/ml), 2 jours
  G2+M: 13.7 ± 1.2 ns
  GO-G1: 58.3 ± 1.3
  S: 28.0 ± 1.0
lignée HBL; M (1µg/ml), 3 jours
  G2+M: 15.3 ± 1.3 ns
  GO-G1: 56.7 ± 1.8
  S: 28.0 ± 3.1
lignée HBL; M (1µg/ml), 4 jours
  G1-GO: 58.0 ± 0.6 ns
  G2+M: 16.0 ± 2.1
  S: 26.0 ± 1.7 ns
lignée HBL; f (0.1µg/ml), 1 jour
  G2±M: 12.7 ± 1.2 ns
  GO-G1: 56.0 ± 1.5
  S: 31.3 ± 2.6
lignée HBL; f (0.1µg/ml), 2 jours
  G2+M: 10.3 ± 2.2 ns
  GO-G1: 53.0 ± 1.5
  S: 36.7 ± 3.7
lignée HBL; f (0.1µg/ml), 3 jours
  G2+M: 11.0 ± 0.6 ns
  GO-G1: 53.7 ± 1.3
  S: 35.3 ± 0.9
lignée HBL; f (0.1µg/ml), 4 jours
  G1-GO: 53.3 ± 1.2
  G2+M: 14.0 ± 2.3 ns
  S: 32.7 ± 3.5 ns
lignée HBL; summary of tableau D BIS
  effet sur le cycle cellulaire (HBL): bloque les cellules en phase S
[2]
  DLo: ~3 mg/kg
